# ChEMBL document CHEMBL3044835, “Pachyelasides A-D, novel molluscicidal triterpene saponins from Pachyelasma tessmannii” (2005)
# Test system: Biomphalaria glabrata
# Assay: Molluscicidal activity against Biomphalaria glabrata assessed as heartbeat measured after 24 hr
# Assay type: functional
# Settings: read-out: LD50 (the source's name)
row,Compound,LC50 [µg/mL]
1,CC1(C)CC[C@]2(C(=O)O)CC[C@]3(C)C(=CC[C@@H]4[C@@]5(C)CC[C@H](O[C@@H]6O[C@H](CO)[C@@H](O)[C@H](O)[C@H]6O[C@@H]6O[C@H](CO)[C@@H](O)[C@H](O[C@@H]7O[C@H](CO)[C@@H](O)[C@H](O)[C@H]7O[C@@H]7O[C@H](CO)[C@@H](O)[C@H](O)[C@H]7O)[C@H]6O)C(C)(C)[C@@H]5CC[C@]43C)[C@@H]2C1 [PACHYELASIDE B],2
2,CC1(C)C[C@H]2C3=CC[C@@H]4[C@@]5(C)CC[C@H](O[C@@H]6O[C@H](CO)[C@@H](O[C@@H]7OC[C@@H](O)[C@H](O)[C@H]7O)[C@H](O)[C@H]6O[C@@H]6OC[C@@H](O)[C@H](O[C@@H]7O[C@H](CO)[C@@H](O)[C@H](O)[C@H]7O[C@@H]7O[C@H](CO)[C@@H](O)[C@H](O)[C@H]7O)[C@H]6O)C(C)(C)[C@@H]5CC[C@@]4(C)[C@]3(C)CC[C@@]2(C(=O)O)C[C@@H]1OC(=O)/C=C/c1ccccc1 [PACHYELASIDE C],2
3,CC1(C)C[C@H]2C3=CC[C@@H]4[C@@]5(C)CC[C@H](O[C@@H]6O[C@H](CO)[C@@H](O[C@@H]7OC[C@@H](O)[C@H](O)[C@H]7O)[C@H](O)[C@H]6O[C@@H]6O[C@H](CO)[C@@H](O)[C@H](O[C@@H]7O[C@H](CO)[C@@H](O)[C@H](O)[C@H]7O[C@@H]7O[C@H](CO)[C@@H](O)[C@H](O)[C@H]7O)[C@H]6O)C(C)(C)[C@@H]5CC[C@@]4(C)[C@]3(C)CC[C@@]2(C(=O)O)C[C@@H]1OC(=O)/C=C/c1ccccc1 [PACHYELASIDE D],8
4,CC1(C)C[C@H]2C3=CC[C@@H]4[C@@]5(C)CC[C@H](O[C@@H]6O[C@H](CO)[C@@H](O)[C@H](O)[C@H]6O[C@@H]6O[C@H](CO)[C@@H](O)[C@H](O[C@@H]7O[C@H](CO)[C@@H](O)[C@H](O)[C@H]7O[C@@H]7O[C@H](CO)[C@@H](O)[C@H](O)[C@H]7O)[C@H]6O)C(C)(C)[C@@H]5CC[C@@]4(C)[C@]3(C)CC[C@@]2(C(=O)O)C[C@@H]1OC(=O)/C=C/c1ccccc1 [PACHYELASIDE-A],2
